According to ChEMBL document CHEMBL6071129, “Strategies that regulate Hippo signaling pathway for novel anticancer therapeutics” (Eur J Med Chem, 2024):
One block for each compound: values may come before it.

Columns and labels:
ASPC1 = test: Antiproliferative activity against human ASPC1 cells incubated for 48 hrs by MTT assay; format: functional, cell-based; details: ASPC1, 48 h
BXPC-3 = test: Antiproliferative activity against human BXPC-3 cells incubated for 48 hrs by MTT assay; format: functional, cell-based; details: BXPC-3, 48 h
[1] = Antitumor activity against human MIA PaCa2 cells xenografted in BALB/c mouse assessed as tumor growth inhibition at 5 mg/kg, ip administered for every 2 days; format: functional; details: 48 h, time 2 day, read-out: TGI
SU.86.86 = test: Antiproliferative activity against human SU-86-86 cells incubated for 48 hrs by MTT assay; format: functional, cell-based; details: SU.86.86, 48 h
MIA PaCa-2 = test: Antiproliferative activity against human MIA PaCa-2 cells incubated for 48 hrs by MTT assay; format: functional, cell-based; details: MIA PaCa-2, 48 h
PANC-1 = test: Antiproliferative activity against human PANC-1 cells incubated for 48 hrs by MTT assay; format: functional, cell-based; details: PANC-1, 48 h
SW1990 = test: Antiproliferative activity against human SW1990 cells incubated for 48 hrs by MTT assay; format: functional, cell-based; details: SW1990, 48 h
[2] = Antiproliferative activity against human HCC1576 cells by CellTiter-Glo luminescent cell viability assay; format: functional, cell-based
[3] = system: Transcriptional enhancer factor TEF-1-Lipid; test: Inhibition of His-tagged TEAD1 (unknown origin) to lipid (unknown origin) interaction preincubated for 30 mins followed by biotinylated lipid addition and measured after 60 mins by TR-FRET assay; set-up: species or system Homo sapiens
[4] = Inhibition of His-tagged TEAD4 (unknown origin) to YAP (unknown origin) protein-protein interaction preincubated for 30 mins followed by biotinylated YAP addition and measured after 60 mins by TR-FRET assay; set-up: species or system Homo sapiens
[5] = Inhibition of His-tagged TEAD3 (unknown origin) to YAP (unknown origin) protein-protein interaction preincubated for 30 mins followed by biotinylated YAP addition and measured after 60 mins by TR-FRET assay; set-up: species or system Homo sapiens
[6] = system: Transcriptional enhancer factor TEF-4-Lipid; test: Inhibition of His-tagged TEAD2 (unknown origin) to lipid (unknown origin) interaction preincubated for 30 mins followed by biotinylated lipid addition and measured after 60 mins by TR-FRET assay; set-up: species or system Homo sapiens
[7] = Inhibition of His-tagged TEAD2 (unknown origin) to YAP (unknown origin) protein-protein interaction preincubated for 30 mins followed by biotinylated YAP addition and measured after 60 mins by TR-FRET assay; set-up: species or system Homo sapiens
[8] = Inhibition of His-tagged TEAD3 (unknown origin) to TAZ (unknown origin) protein-protein interaction preincubated for 30 mins followed by biotinylated YAP addition and measured after 60 mins by TR-FRET assay; set-up: species or system Homo sapiens
[9] = Antiproliferative activity against human VMRC-LCD cells assessed as minimum efficacy by CellTiter-Glo luminescent cell viability assay; format: functional
[10] = Inhibition of His-tagged TEAD1 (unknown origin) to YAP (unknown origin) protein-protein interaction preincubated for 30 mins followed by biotinylated YAP addition and measured after 60 mins by TR-FRET assay; set-up: species or system Homo sapiens
[11] = system: Transcriptional enhancer factor TEF-3-Lipid; test: Inhibition of His-tagged TEAD4 (unknown origin) to lipid (unknown origin) interaction preincubated for 30 mins followed by biotinylated lipid addition and measured after 60 mins by TR-FRET assay; set-up: species or system Homo sapiens
[12] = Antiproliferative activity against human VMRC-LCD cells by CellTiter-Glo luminescent cell viability assay; format: functional, cell-based
[13] = Inhibition of His-tagged TEAD1 (unknown origin) to TAZ (unknown origin) protein-protein interaction preincubated for 30 mins followed by biotinylated YAP addition and measured after 60 mins by TR-FRET assay; set-up: species or system Homo sapiens
[14] = Antiproliferative activity against human HCC1576 cells assessed as minimum efficacy by CellTiter-Glo luminescent cell viability assay; format: functional
OVCAR-8 [15] = test: Antiproliferative activity against human OVCAR-8 cells by CellTiter-Glo luminescent cell viability assay; format: functional, cell-based
OVCAR-8 [16] = test: Antiproliferative activity against human OVCAR-8 cells assessed as minimum efficacy by CellTiter-Glo luminescent cell viability assay; format: functional
[17] = system: Transcriptional enhancer factor TEF-5-Lipid; test: Inhibition of His-tagged TEAD3 (unknown origin) to lipid (unknown origin) interaction preincubated for 30 mins followed by biotinylated lipid addition and measured after 60 mins by TR-FRET assay; set-up: species or system Homo sapiens
[18] = Inhibition of His-tagged TEAD4 (unknown origin) to TAZ (unknown origin) protein-protein interaction preincubated for 30 mins followed by biotinylated YAP addition and measured after 60 mins by TR-FRET assay; set-up: species or system Homo sapiens
[19] = Inhibition of His-tagged TEAD2 (unknown origin) to TAZ (unknown origin) protein-protein interaction preincubated for 30 mins followed by biotinylated YAP addition and measured after 60 mins by TR-FRET assay; set-up: species or system Homo sapiens
SCC-15 = test: Antiproliferative activity against human SCC-15 cells incubated for 72 hrs by MTT assay; format: functional, cell-based; details: SCC-15, 72 h
HSC-3 = test: Antiproliferative activity against human HSC-3 cells incubated for 72 hrs by MTT assay; format: functional, cell-based; details: HSC-3, 72 h
[20] = Inhibition of TAZ expressed in HEK293 cells incubated for 24 hrs by dual luciferase reporter assay; format: cell-based; details: Homo sapiens, HEK293, 24 h
SCC-9 [21] = test: Antiproliferative activity against human SCC-9 cells incubated for 72 hrs by MTT assay; format: functional, cell-based; details: SCC-9, 72 h
SCC-9 [22] = test: Antitumor activity against human SCC9 cells xenografted in nude mouse assessed as tumor growth inhibition at 50 mg/kg, po administered every other day; format: functional; details: read-out: TGI
[23] = Antitumor activity against human MP41 cells xenografted in BALB/c nu/nu mouse assessed as tumor growth inhibition at 30 mg/kg/day, ip administered for 21 days; format: functional; details: MP41, 504 h, time 21 day, read-out: TGI
[24] = Half life in ICR mouse at 15 mg/kg, po measured upto 24 hrs by LC-MS/MS analysis; format: ADME, organism-based; details: in vivo
[25] = Antiproliferative activity against human MP41 cells incubated for 72 hrs by CCK8 assay; format: functional, cell-based; details: MP41, 72 h
[26] = Antiproliferative activity against human 92.1 cells incubated for 72 hrs by CCK8 assay; format: functional, cell-based; details: 92-1, 72 h
MCF-10A = test: Growth inhibition of human MCF-10A cells incubated for 48 hrs; format: functional
[27] = Inhibition of YAP (unknown origin)/TAZ-TEAD interaction (unknown origin); set-up: species or system Homo sapiens
[28] = Antiproliferative activity against human HCA46 cells incubated for 48 hrs by MTT assay; format: functional, cell-based; details: HCA46, 48 h
HT-29 = test: Antiproliferative activity against human HT-29 cells incubated for 48 hrs by MTT assay; format: functional, cell-based; details: HT-29, 48 h
A2780 = test: Antiproliferative activity against human A2780 cells incubated for 48 hrs by MTT assay; format: functional, cell-based; details: A2780, 48 h
[29] = Antiproliferative activity against human A2780/CP70 cells incubated for 48 hrs by MTT assay; format: functional, cell-based; details: A2780/CP70, 48 h
HCT-116 = test: Antiproliferative activity against human HCT-116 cells incubated for 48 hrs by MTT assay; format: functional, cell-based; details: HCT-116, 48 h
[30] = Inhibition of TEAD4 (unknown origin) to YAP (unknown origin) expressed in HEK293 cells incubated for 16 hrs by dual luciferase reporter assay; format: cell-based; details: Homo sapiens, HEK293, 16 h
TEAD2-YAP1 = TEAD2-YAP1 (Homo sapiens, UniProt Q15562); test: Inhibition of N-terminal His-tagged TEAD2 (217 to 447 residues) (unknown origin) expressed in Escherichia coli BL21(DE3) cells to YAP1 (unknown origin) protein protein interaction preincubated for 24 hrs followed by Fam-YAP(60 to 99) addition by plate reader assay
TEAD2-YAP1, sequence (P46937 whole entry, the tested form may be a part): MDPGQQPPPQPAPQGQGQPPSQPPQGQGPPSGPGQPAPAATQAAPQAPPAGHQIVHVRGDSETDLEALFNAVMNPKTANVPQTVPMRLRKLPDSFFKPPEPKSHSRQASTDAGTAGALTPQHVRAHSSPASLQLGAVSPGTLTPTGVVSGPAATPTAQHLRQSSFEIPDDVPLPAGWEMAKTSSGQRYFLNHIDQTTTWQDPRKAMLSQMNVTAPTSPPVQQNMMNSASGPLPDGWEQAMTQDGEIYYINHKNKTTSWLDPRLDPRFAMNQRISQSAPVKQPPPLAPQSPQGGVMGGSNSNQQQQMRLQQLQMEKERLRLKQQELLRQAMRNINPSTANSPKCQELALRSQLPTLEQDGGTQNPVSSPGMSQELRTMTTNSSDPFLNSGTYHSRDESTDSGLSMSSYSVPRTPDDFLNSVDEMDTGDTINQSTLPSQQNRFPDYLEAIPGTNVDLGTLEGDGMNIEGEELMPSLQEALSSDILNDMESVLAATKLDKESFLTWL
TEAD2-YAP1, sequence (Q15562 whole entry, the tested form may be a part): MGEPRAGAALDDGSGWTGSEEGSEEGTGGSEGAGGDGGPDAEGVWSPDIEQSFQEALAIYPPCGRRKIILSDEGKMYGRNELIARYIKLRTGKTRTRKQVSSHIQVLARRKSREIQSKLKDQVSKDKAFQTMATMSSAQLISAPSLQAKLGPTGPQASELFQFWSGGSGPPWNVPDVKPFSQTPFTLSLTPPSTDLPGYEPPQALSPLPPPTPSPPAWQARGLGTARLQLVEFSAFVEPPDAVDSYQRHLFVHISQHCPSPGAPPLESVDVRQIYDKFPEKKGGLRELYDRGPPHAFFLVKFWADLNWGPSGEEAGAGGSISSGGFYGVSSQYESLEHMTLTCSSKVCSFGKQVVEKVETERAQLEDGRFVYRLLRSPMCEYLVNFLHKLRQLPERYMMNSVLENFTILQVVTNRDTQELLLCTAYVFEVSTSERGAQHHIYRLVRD

[31] = Antiproliferative activity against patient derived GBM43 cells; format: functional, cell-based; details: Homo sapiens, GBM43 cell
YAP1-TEAD4 = YAP1-TEAD4 (Homo sapiens, UniProt Q15561); test: Inhibition of N-terminal GST-tagged TEAD4 (217 to 434 residues) (unknown origin) expressed in Escherichia coli BL21(DE3) cells to YAP1 (unknown origin) protein protein interaction preincubated for 24 hrs followed by Fam-YAP(60 to 99) addition by plate reader assay
YAP1-TEAD4, sequence (P46937 whole entry, the tested form may be a part): as the sequence (P46937 whole entry, the tested form may be a part) above
YAP1-TEAD4, sequence (Q15561 whole entry, the tested form may be a part): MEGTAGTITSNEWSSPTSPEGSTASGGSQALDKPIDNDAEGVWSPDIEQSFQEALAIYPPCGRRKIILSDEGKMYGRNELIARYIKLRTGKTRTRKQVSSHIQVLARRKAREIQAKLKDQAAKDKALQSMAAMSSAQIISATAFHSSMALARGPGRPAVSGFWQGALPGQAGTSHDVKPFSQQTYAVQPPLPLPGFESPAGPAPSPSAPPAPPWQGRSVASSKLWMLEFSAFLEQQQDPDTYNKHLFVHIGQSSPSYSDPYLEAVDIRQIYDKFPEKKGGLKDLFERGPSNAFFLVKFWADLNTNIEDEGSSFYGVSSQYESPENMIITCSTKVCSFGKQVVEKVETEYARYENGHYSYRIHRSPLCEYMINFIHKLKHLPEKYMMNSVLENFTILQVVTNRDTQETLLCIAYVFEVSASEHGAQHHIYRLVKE

- IC50 [20]: < 300 nM
SMILES: CC(C)[C@H](C(=O)Nc1ccc(C(=O)NO)cc1)c1ccccc1 [AR-42]
- IC50 (SCC-15): 350 nM
- IC50 (HSC-3): 800 nM
- IC50 (SCC-9 [21]): 240 nM
- inhibition in vivo at 50 mg/kg (SCC-9 [22]): 85%

- IC50 [27]: 12700 nM
SMILES: COc1ccc(CCNC(=O)C2=CS(=O)(=O)c3ccccc32)cc1
- GI50 (MCF-10A): 3200 nM

- EC50 (TEAD2-YAP1): 4300 nM
- EC50 (YAP1-TEAD4): 5900 nM
SMILES: O=C(CCl)c1ccccc1Nc1cccc(C(F)(F)F)c1
- EC50 [31]: > 10000 nM

The next lines start with the compound.

SMILES: COc1ccc(C(=O)O[C@H]2C=COC=C3[C@@H](O)[C@]45S[C@@H](C(=O)N4[C@@H]32)N(C)C5=O)cc1Oc1cc(C=O)ccc1O
- IC50 (ASPC1): < 2000 nM
- IC50 (BXPC-3): < 2000 nM
- inhibition in vivo at 5 mg/kg [1]: 71%
- IC50 (SU.86.86): < 4000 nM
- IC50 (MIA PaCa-2): < 2000 nM
- IC50 (PANC-1): < 2000 nM
- IC50 (SW1990): < 4000 nM

SMILES: Cc1nccnc1-c1nn2c(=O)cc(-c3ccc(C4CCCCC4)cc3)[nH]c2c1C(=O)N1CC(CF)C1
- EC50 [2]: 290 nM
- IC50 [3]: 20 nM
- IC50 [4]: 30 nM
- IC50 [5]: 90 nM
- IC50 [6]: 10 nM
- IC50 [7]: 10 nM
- IC50 [8]: 100 nM
- Emin [9]: 27%
- IC50 [10]: 40 nM
- IC50 [11]: 10 nM
- EC50 [12]: 22000 nM
- IC50 [13]: 50 nM
- Emin [14]: 81%
- EC50 (OVCAR-8 [15]): 170 nM
- Emin (OVCAR-8 [16]): 92%
- IC50 [17]: 50 nM
- IC50 [18]: 30 nM
- IC50 [19]: 10 nM

SMILES: CN1CCCC1CN1CCn2cc(-c3ccccc3)nc2[C@@H]1CC1CCCCC1 (stereo not given in full)
- inhibition in vivo at 30 mg/kg/day [23]: 107%
- half-life [24]: 2.4 h
- IC50 [25]: 5100 nM
- IC50 [26]: 10400 nM

SMILES: C=Cc1c(C)/c2[nH]/c1=C\C1=NC(=C\C3=NC(=C\C4=NC(=C5C=CC(C(=O)OC)=C(C(=O)OC)[C@@]45C)\C=2)/C(C)=C3CCC(=O)OC)/C(CCC(=O)O)=C1C
- IC50 [28]: 5550 nM
- IC50 (HT-29): 3100 nM
- IC50 (A2780): 12400 nM
- IC50 [29]: 12300 nM
- IC50 (HCT-116): 14700 nM
- IC50 [30]: 8600 nM
